# Source: ChEMBL document CHEMBL1158101, “Protein tyrosine phosphatase-1B inhibitory activity of isoprenylated flavonoids isolated from Erythrina mildbraedii” (J Nat Prod, 2006)
# Biological target: T1, Tyrosine-protein phosphatase non-receptor type 1 (Homo sapiens, UniProt P18031)
# T1 sequence (P18031 whole entry): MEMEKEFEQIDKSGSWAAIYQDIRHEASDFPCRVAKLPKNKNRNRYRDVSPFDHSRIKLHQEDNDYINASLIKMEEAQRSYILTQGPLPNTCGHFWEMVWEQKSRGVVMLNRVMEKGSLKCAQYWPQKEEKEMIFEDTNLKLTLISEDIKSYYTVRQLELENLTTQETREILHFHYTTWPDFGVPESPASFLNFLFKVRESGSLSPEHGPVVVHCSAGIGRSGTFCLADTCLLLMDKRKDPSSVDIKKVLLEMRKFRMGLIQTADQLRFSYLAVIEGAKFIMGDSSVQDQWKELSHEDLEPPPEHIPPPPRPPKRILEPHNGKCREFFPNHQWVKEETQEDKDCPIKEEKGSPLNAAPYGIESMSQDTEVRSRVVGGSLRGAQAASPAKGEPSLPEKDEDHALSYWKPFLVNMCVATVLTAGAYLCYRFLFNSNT
# Assay: Inhibition of human recombinant PTP1B
row,SMILES,IC50
1,COc1ccc(/C=C/C(=O)c2ccc(O)cc2O)cc1,> 60 µM
2,COc1cc(OC)c2c(=O)c(-c3ccc(O)cc3)coc2c1,> 60 µM
3,COc1c(/C=C/C(C)(C)O)cc([C@@H]2CC(=O)c3ccc(O)cc3O2)cc1CC=C(C)C,> 60 µM
4,CC(C)=CCc1cc([C@@H]2CC(=O)c3c(O)cc(O)cc3O2)cc(CC=C(C)C)c1O [ABYSSINONE V],39.7 µM
5,CC1(C)C=Cc2c(cc3occ(-c4ccc(O)cc4)c(=O)c3c2O)O1 [ALPINUMISOFLAVONE],41.5 µM
6,O=C(/C=C/c1ccc(O)cc1)c1ccc(O)cc1O [ISOLIQUIRITIGENIN],> 60 µM
7,O=C1C[C@@H](c2ccc(O)cc2)Oc2cc(O)ccc21 [LIQUIRTIGENIN],> 60 µM
8,C[C@@H]1O[C@@H](O[C@H]2[C@H](Oc3cc(O)c4c(c3)O[C@H](c3ccc(O)cc3)CC4=O)O[C@H](CO)[C@@H](O)[C@@H]2O)[C@H](O)[C@H](O)[C@H]1O [NARINGIN],> 60 µM

# Next, values leading:
row,IC50,SMILES
1,26.3 µM,COc1c(CC=C(C)C)cc([C@@H]2CC(=O)c3c(O)cc(O)cc3O2)cc1CC=C(C)C
2,21.2 µM,COc1c(CC=C(C)C)cc([C@@H]2CC(=O)c3ccc(O)cc3O2)cc1CC=C(C)C
3,14.8 µM,COc1c(CC=C(C)C)cc(/C=C/C(=O)c2ccc(O)cc2O)cc1CC=C(C)C
4,16 µM,CC(C)=CCc1cc([C@@H]2CC(=O)c3ccc(O)cc3O2)cc(CC=C(C)C)c1O [ABYSSINONE IV]
5,39.2 µM,CC(C)=CCc1cc([C@@H]2CC(=O)c3c(O)cc(O)cc3O2)cc2c1OC(C)(C)C=C2 [SIGMOIDIN E]
